Read-outs that look alike come from different tables or passages of the source.
Tests used:
[1] = tested on: human lymphocytes; experiment: In vitro lymphocyte stimulation assay in humans; format: cell-based; conditions: PHA and Con-A
Description: The purpose of this assay is to challenge lymphocytes in microcultures with one or more polyclonal mitogens at concentrations that will induce mitogenesis within 72 hours of stimulation.
In the mouse model, spleens are removed from different strains of mice and the spleen cells are teased free and suspended in RPMI-1640 tissue culture medium at a concentration of usually 1×10^7 ml. These cells are dispensed at a concentration of 5.0×10^5 cells per microculture well in a 96 well flat bottom 96 well tissue culture plate. All testing of the compounds of this invention or mitogens are done in replicates of 10. The cells are then treated with PHA, Con-A, specific antigens, or buffer only. If in vitro testing is done, varying concentrations of the compounds of this invention or buffer only are added to the cells as well. After treatment with the mitogens and/or compounds of this invention, the cells are incubated for 72 hours. The response of these cells to mitogens and/or the compounds of this invention is assessed using ^14 C-thymidine labeling on the fourth day at a concentration of 0.01 μCi/well. The labeled cells are harvested using a lymphocyte harvestor and placed onto fibrous paper discs. A scintillation cocktail is added to vials contaning the discs and the results are obtained using a LKB-liquid scintillation counter (Model 1216/Rackbeta II). The data is expressed as a ratio of the cpm of the mitogen stimulated group to the control (non-mitogen) treated group=lymphocyte stimulation index (LSI).
The lymphocyte stimulation assay may be performed directly on spleen cells obtained from various strains of mice not treated with the compounds of this invention or on lymphocytes obtained from […]. […] Alternatively, the mice may be treated in vivo with the compounds of this invention by intraperitoneal multi-dose schedules, followed by sacrifice and harvesting spleen lymphocytes. These cells are then tested for their response to polyclonal mitogens or specific antigens used to immunize the mice. […]

[2] = tested on: spleen lymphocytes of BSA-immunized C57BL/6 mice
Excerpt: (§1) The effect of the compounds of this invention on the immune response to specific antigens involves immunization of mice with specific anitgens such as bovine serum albumin (BSA) or keyhole limpet hemocyanin (KLH). Following immunization, it is possible to assess the cell-mediated or humoral (antibody) immune response to these antigens by various methods:
(§2) (1) Lymphocyte stimulation assays can be performed using varying concentrations of the specific antigens as mitogens in the lymphocyte stimulation microculture system described above. The only difference is that the incubation period is extended to five days instead of three as for the polyclonal mitogens.
Mice of the C57BL/6 strain are given i.p. injections of either 50, 100, 200 or 400 mg/kg of Cpd. 1 or buffer for twelve days (days 1-12). An antigen, bovine serum albumin (BSA), is administered intraperitoneally with Freund's Complete Adjuvant (FCA) on days 1, 7 and 14. Blood samples are taken for assay of the antibody response on days 0, 5, 13, and 19.

[3] = tested on: spleen lymphocytes of KLH-immunized C57BL/6 mice; conditions: for Lymphocyte Stimulation Index, Con-A / Lymphocyte Stimulation Index, Control (no mitogen) / Lymphocyte Stimulation Index, PHA: day 17
Excerpt: as §1, §2
Mice of the C57BL/6 strain are given i.p. injections of either 50, 100, 200 or 400 mg/kg of Cpd. 1 or buffer for ten days (days 1-10). An antigen, keyhole limpet hemocyanin (KLH), is administered intraperitoneally with Freund's Complete Adjuvant (FCA) on days 1, 7, and 13. Blood samples are taken for assay of the antibody response on days 0, 5, 12, and 17. Spleens are removed, lymphocytes isolated and a lymphocyte stimulation assay with PHA, Con-A or KLH antigen as the mitogens is performed on day 17 of the experiment.

SMILES: Cc1ccc(C2(O)C(=O)OC3C(O)COC32O)o1.Cc1ccc(C2(O)C(=O)OC3C(O)COC32O)o1.O=C1CCC(=O)O1 (stereo not shown) [Cpd. 1]
- lymphocyte response, very low doses ([1]; 1 and 0.1 μg/ml): markedly increased lymphocyte response
- lymphocyte response, high dose ([1]; 100 and 50 μg/ml): high dose anti-proliferative effect
- Lymphocyte Stimulation Index ([2]; 50 mg/kg i.p., day 13, BSA 0 μg/well): 16.5
- Lymphocyte Stimulation Index ([2]; 50 mg/kg i.p., day 13, BSA 0.01 μg/well): 19.9
- Lymphocyte Stimulation Index ([2]; 50 mg/kg i.p., day 13, BSA 0.1 μg/well): 23.1
- Lymphocyte Stimulation Index ([2]; 50 mg/kg i.p., day 13, BSA 0.5 μg/well): 22.9
- Lymphocyte Stimulation Index ([2]; 50 mg/kg i.p., day 13, BSA 1 μg/well): 18.2
- Lymphocyte Stimulation Index ([2]; 50 mg/kg i.p., day 19, BSA 0 μg/well): .26
- Lymphocyte Stimulation Index ([2]; 50 mg/kg i.p., day 19, BSA 0.01 μg/well): 2.33
- Lymphocyte Stimulation Index ([2]; 50 mg/kg i.p., day 19, BSA 0.1 μg/well): 2.27
- Lymphocyte Stimulation Index ([2]; 50 mg/kg i.p., day 19, BSA 0.5 μg/well): 2.37
- Lymphocyte Stimulation Index ([2]; 50 mg/kg i.p., day 19, BSA 1.0 μg/well): 2.63
- DNA synthesis compared to controls ([2]; 50 mg/kg, day 13): significant stimulation of DNA synthesis
- DNA synthesis effect ([2]; 50 mg/kg, day 19): waned
- Lymphocyte Stimulation Index ([2]; 100 mg/kg i.p., day 13, BSA 0 μg/well): 3.22
- Lymphocyte Stimulation Index ([2]; 100 mg/kg i.p., day 13, BSA 0.01 μg/well): 9.8
- Lymphocyte Stimulation Index ([2]; 100 mg/kg i.p., day 13, BSA 0.1 μg/well): 11.9
- Lymphocyte Stimulation Index ([2]; 100 mg/kg i.p., day 13, BSA 0.5 μg/well): 12.3
- Lymphocyte Stimulation Index ([2]; 100 mg/kg i.p., day 13, BSA 1 μg/well): 10.2
- Lymphocyte Stimulation Index ([2]; 100 mg/kg i.p., day 19, BSA 0 μg/well): 4.1
- Lymphocyte Stimulation Index ([2]; 100 mg/kg i.p., day 19, BSA 0.01 μg/well): 3.79
- Lymphocyte Stimulation Index ([2]; 100 mg/kg i.p., day 19, BSA 0.1 μg/well): 2.68
- Lymphocyte Stimulation Index ([2]; 100 mg/kg i.p., day 19, BSA 0.5 μg/well): 2.03
- Lymphocyte Stimulation Index ([2]; 100 mg/kg i.p., day 19, BSA 1.0 μg/well): .26
- Lymphocyte Stimulation Index ([2]; 200 mg/kg i.p., day 13, BSA 0 μg/well): 10.6
- Lymphocyte Stimulation Index ([2]; 200 mg/kg i.p., day 13, BSA 0.01 μg/well): 14.1
- Lymphocyte Stimulation Index ([2]; 200 mg/kg i.p., day 13, BSA 0.1 μg/well): 15.8
- Lymphocyte Stimulation Index ([2]; 200 mg/kg i.p., day 13, BSA 0.5 μg/well): 13.8
- Lymphocyte Stimulation Index ([2]; 200 mg/kg i.p., day 13, BSA 1 μg/well): 14.0
- Lymphocyte Stimulation Index ([2]; 200 mg/kg i.p., day 19, BSA 0 μg/well): 0.42
- Lymphocyte Stimulation Index ([2]; 200 mg/kg i.p., day 19, BSA 0.01 μg/well): 2.94
- Lymphocyte Stimulation Index ([2]; 200 mg/kg i.p., day 19, BSA 0.1 μg/well): 2.82
- Lymphocyte Stimulation Index ([2]; 200 mg/kg i.p., day 19, BSA 0.5 μg/well): 2.56
- Lymphocyte Stimulation Index ([2]; 200 mg/kg i.p., day 19, BSA 1.0 μg/well): 2.12
- Lymphocyte Stimulation Index ([2]; 400 mg/kg i.p., day 13, BSA 0 μg/well): 10.9
- Lymphocyte Stimulation Index ([2]; 400 mg/kg i.p., day 13, BSA 0.01 μg/well): 13.7
- Lymphocyte Stimulation Index ([2]; 400 mg/kg i.p., day 13, BSA 0.1 μg/well): 12.8
- Lymphocyte Stimulation Index ([2]; 400 mg/kg i.p., day 13, BSA 0.5 μg/well): 12.3
- Lymphocyte Stimulation Index ([2]; 400 mg/kg i.p., day 13, BSA 1 μg/well): 13.8
- Lymphocyte Stimulation Index ([2]; 400 mg/kg i.p., day 19, BSA 0 μg/well): 5.0
- Lymphocyte Stimulation Index ([2]; 400 mg/kg i.p., day 19, BSA 0.01 μg/well): 3.26
- Lymphocyte Stimulation Index ([2]; 400 mg/kg i.p., day 19, BSA 0.1 μg/well): 2.89
- Lymphocyte Stimulation Index ([2]; 400 mg/kg i.p., day 19, BSA 0.5 μg/well): 1.94
- Lymphocyte Stimulation Index ([2]; 400 mg/kg i.p., day 19, BSA 1.0 μg/well): 1.04
- Lymphocyte Stimulation Index, Con-A ([3]; 50 mg/kg i.p.): 19.0
- Lymphocyte Stimulation Index, Control (no mitogen) ([3]; 50 mg/kg i.p.): 0.976
- Lymphocyte Stimulation Index, PHA ([3]; 50 mg/kg i.p.): 7.65
- Lymphocyte Stimulation Index, KLH ([3]; 50 mg/kg i.p., day 17, KLH 0.025 μg/well): 0.0386
- Lymphocyte Stimulation Index, KLH ([3]; 50 mg/kg i.p., day 17, KLH 0.5 μg/well (first 0.5 column)): 0.415
- Lymphocyte Stimulation Index, KLH ([3]; 50 mg/kg i.p., day 17, KLH 0.5 μg/well (second 0.5 column)): 0.357
- Lymphocyte Stimulation Index, KLH ([3]; 50 mg/kg i.p., day 17, KLH 1.0 μg/well): 0.536
- Lymphocyte Stimulation Index, Con-A ([3]; 100 mg/kg i.p.): 15.6
- Lymphocyte Stimulation Index, Control (no mitogen) ([3]; 100 mg/kg i.p.): 0.961
- Lymphocyte Stimulation Index, PHA ([3]; 100 mg/kg i.p.): 9.12
- Lymphocyte Stimulation Index, KLH ([3]; 100 mg/kg i.p., day 17, KLH 0.025 μg/well): 0.401
- Lymphocyte Stimulation Index, KLH ([3]; 100 mg/kg i.p., day 17, KLH 0.5 μg/well (first 0.5 column)): 0.734
- Lymphocyte Stimulation Index, KLH ([3]; 100 mg/kg i.p., day 17, KLH 0.5 μg/well (second 0.5 column)): 0.526
- Lymphocyte Stimulation Index, KLH ([3]; 100 mg/kg i.p., day 17, KLH 1.0 μg/well): 0.898
- Lymphocyte Stimulation Index, Con-A ([3]; 200 mg/kg i.p.): 51.7
- Lymphocyte Stimulation Index, Control (no mitogen) ([3]; 200 mg/kg i.p.): 1.73
- Lymphocyte Stimulation Index, PHA ([3]; 200 mg/kg i.p.): 12.4
- Lymphocyte Stimulation Index, KLH ([3]; 200 mg/kg i.p., day 17, KLH 0.025 μg/well): 3.91
- Lymphocyte Stimulation Index, KLH ([3]; 200 mg/kg i.p., day 17, KLH 0.5 μg/well (first 0.5 column)): 4.26
- Lymphocyte Stimulation Index, KLH ([3]; 200 mg/kg i.p., day 17, KLH 0.5 μg/well (second 0.5 column)): 1.02
- Lymphocyte Stimulation Index, KLH ([3]; 200 mg/kg i.p., day 17, KLH 1.0 μg/well): 7.45
- lymphocyte DNA synthesis ([3]; 200 mg/kg, day 17, Con-A or KLH): statistically significant increase in lymphocyte DNA synthesis
- Lymphocyte Stimulation Index, Con-A ([3]; 400 mg/kg i.p.): 35.5
- Lymphocyte Stimulation Index, Control (no mitogen) ([3]; 400 mg/kg i.p.): 0.840
- Lymphocyte Stimulation Index, PHA ([3]; 400 mg/kg i.p.): 2.32
- Lymphocyte Stimulation Index, KLH ([3]; 400 mg/kg i.p., day 17, KLH 0.025 μg/well): 1.03
- Lymphocyte Stimulation Index, KLH ([3]; 400 mg/kg i.p., day 17, KLH 0.5 μg/well (first 0.5 column)): 0.232
- Lymphocyte Stimulation Index, KLH ([3]; 400 mg/kg i.p., day 17, KLH 0.5 μg/well (second 0.5 column)): 0.667
- Lymphocyte Stimulation Index, KLH ([3]; 400 mg/kg i.p., day 17, KLH 1.0 μg/well): 0.589
